As a reminder, the IC50 is the point on the concentration scale where inhibition reaches its midpoint.

IC50 data for 15 molecules are collected here from US11912719B2, “Substituted isoquinolines as rock kinase inhibitors” (Cervello Therapeutics LLC, priority 2018, dated 2024).

Where only a bound is given, the exact number is not on record here.

What all share (type): biochemical
Assay [1] concerns the target T1, human ROCK1 catalytic domain (Homo sapiens, UniProt Q13464).
T1 construct: GST; purchased Carna BioSciences 01-109
As to the kind of experiment: fluorescence coupling (TR-FRET) enzymatic assay, ROCK1. To be noted: 4 nM enzyme, 4 μM ATP, 50 nM Ulight-CREBTide, one hour room temperature; read-out: ROCK1 IC50. The procedure: (§1) Briefly, compounds of the present invention were solubilized in DMSO and a series of 12, three-fold serial dilutions were made for each compound in 2.5% DMSO. The initial starting concentration for the serial dilutions of each compound was 10 μM or 100 μM. Control samples lacking compound, ROCK enzyme or ATP also were prepared and processed in parallel with compound test samples.
The reaction mixtures were incubated at room temperature for one hour. After one hour, the reaction was stopped by the addition of a 10 solution of an Europium-labelled phospho-CREB (Ser133) antibody (Perkin Elmer, Catalog #TRF0200) in LANCE buffer supplemented with 20 mM EDTA. The stopped reaction mixtures were incubated at room temperature for 90 minutes. […] The ICso value for each compound was determined from each dose-response curve using GraphPad Prism 7 software with a sigmodial dose response.

Assay [2] concerns the target T2, human ROCK2 enzyme kinase domain (Homo sapiens, UniProt O75116).
T2 construct: GST; purchased Carna BioSciences 01-110
As to the kind of experiment: fluorescence coupling (TR-FRET) enzymatic assay, ROCK2. The following applies: 4 nM enzyme, 50 nM Ulight-CREBTide, one hour room temperature. As to the method: (§2) Dose-response curves for compounds of the present invention were determined using a fluorescence coupling enzymatic assay using purified C-terminal truncated human ROCK1 catalytic domain (amino acids 1-477 of accession number NP_005397.1) fused to GST (Carna BioSciences, Catalog #01-109) and purified C-terminal truncated human ROCK2 enzyme kinase domain (amino acids 1-553 of accession number NP_004841.2) fused to GST BioSciences, Catalog #01-110). In addition, full length cGMP-dependent protein kinase 1 (PKG or PRKG1; amino acids 1-686 of accession number NP_006249.1) fused to GST (Carna BioSciences, Catalog #01-142), full length PKACα (PRKACA; amino acids 1-351 of accession number NP_002721.1) fused to GST (Carna BioSciences, Catalog #01-127), and C-terminal truncated human AKT1 catalytic domain (amino acids 104-480 of accession number NP_005154.1) fused to GST Biosciences, Catalog #01-101) were used as a control to measure any non-desired off-target kinase activity.
as §1
(§3) A 4 μL aliquot of each serial dilution of test compound diluted in H2O with 2.5% DMSO was added to a well containing 4 μL of 10 nM purified N-truncated ROCK1 (4 nM final concentration), 10 nM purified N-truncated ROCK2 enzyme (4 nM final concentration), 1.25 nM AKT1 (0.5 nM final concentration), 25 pM PKACA (10 pM final concentration) or 20 nM PKG (8 nM final concentration), in reaction buffer containing 50 mM Hepes, pH 7.5, 1 mM EGTA, 10 mM MgCl2, 2 mM DTT, and 0.01% Tween 20 (final concentration). To initiate the enzymatic reaction, 2 μL of a solution was added to each well to provide a final concentration of 50 nM Ulight-CREBTide peptide substrate (Perkin Elmer, Catalog #TRF0107) and 4 μM ATP for ROCK1 and AKT1 assays, […] for ROCK2 assays and 30 μM ATP for PKG assays, or 1 μM ATP for PKACA assays. The reaction mixtures were incubated at room temperature for one hour. After one hour, the reaction was stopped by the addition of a 10 solution of an Europium-labelled phospho-CREB (Ser133) antibody (Perkin Elmer, Catalog #TRF0200) in LANCE buffer supplemented with 20 mM EDTA. The stopped reaction mixtures were incubated at room temperature for 90 minutes. The TR-FRET 665/620 ratios were determined using a Clariostar monochromator plate reader instrument (BMG LabTech) in accordance with the manufacturer's instructions. The ICso value for each compound was determined from each dose-response curve using GraphPad Prism 7 software with a sigmodial dose response. Key: A is IC50≤100 nM; B is 100 nM<IC50<1000 nM; C is 1,000<IC50≤10,000 nM; D is IC50>10,000 nM
In general terms: In TR-FRET formats the signal depends on donor and acceptor labels being close together.

For assay [3], the target named is T3, PKACα (PRKACA) (Homo sapiens, UniProt P17612).
T3 construct: GST; purchased Carna BioSciences 01-127
As to the kind of experiment: fluorescence coupling (TR-FRET) enzymatic assay, PKACA off-target control. The following applies: 10 pM enzyme, 1 μM ATP, 50 nM Ulight-CREBTide, one hour room temperature. The procedure: as §2, §1, §3

For assay [4], the target named is T4, human AKT1 catalytic domain (Homo sapiens, UniProt P31749).
T4 construct: GST; purchased Carna BioSciences 01-101
As to the kind of experiment: fluorescence coupling (TR-FRET) enzymatic assay, AKT1 off-target control. The following applies: 0.5 nM enzyme, 4 μM ATP, 50 nM Ulight-CREBTide, one hour room temperature. As to the method: as §2, §1, §3

The target of assay [5] is T5, cGMP-dependent protein kinase 1 (PKG or PRKG1) (Homo sapiens, UniProt Q13976).
T5 construct: GST; purchased Carna BioSciences 01-142
T5 sequence (Q13976 1-686 isoform Q13976-2): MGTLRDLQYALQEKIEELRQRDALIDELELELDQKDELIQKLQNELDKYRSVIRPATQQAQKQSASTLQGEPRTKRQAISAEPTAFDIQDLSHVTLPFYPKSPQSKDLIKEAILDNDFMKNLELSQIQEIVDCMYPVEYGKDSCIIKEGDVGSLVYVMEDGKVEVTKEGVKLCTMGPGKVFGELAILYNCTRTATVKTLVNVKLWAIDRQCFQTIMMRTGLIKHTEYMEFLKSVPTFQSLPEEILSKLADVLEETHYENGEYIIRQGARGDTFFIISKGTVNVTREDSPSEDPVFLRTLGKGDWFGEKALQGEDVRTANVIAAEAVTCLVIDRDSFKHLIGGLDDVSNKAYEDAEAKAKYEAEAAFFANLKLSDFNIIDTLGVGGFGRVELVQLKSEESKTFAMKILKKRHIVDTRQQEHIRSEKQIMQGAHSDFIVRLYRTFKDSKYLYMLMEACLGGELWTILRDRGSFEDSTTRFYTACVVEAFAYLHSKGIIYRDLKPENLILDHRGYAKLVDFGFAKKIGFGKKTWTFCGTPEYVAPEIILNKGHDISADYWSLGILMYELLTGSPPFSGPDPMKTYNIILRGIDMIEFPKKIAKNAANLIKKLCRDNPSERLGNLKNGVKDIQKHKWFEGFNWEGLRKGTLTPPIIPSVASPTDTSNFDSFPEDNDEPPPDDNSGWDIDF
As to the kind of experiment: fluorescence coupling (TR-FRET) enzymatic assay, PKG off-target control. To be noted: 8 nM enzyme, 30 μM ATP, 50 nM Ulight-CREBTide, one hour room temperature. The procedure: as §2, §1, §3

T1 sequence (Q13464 1-477): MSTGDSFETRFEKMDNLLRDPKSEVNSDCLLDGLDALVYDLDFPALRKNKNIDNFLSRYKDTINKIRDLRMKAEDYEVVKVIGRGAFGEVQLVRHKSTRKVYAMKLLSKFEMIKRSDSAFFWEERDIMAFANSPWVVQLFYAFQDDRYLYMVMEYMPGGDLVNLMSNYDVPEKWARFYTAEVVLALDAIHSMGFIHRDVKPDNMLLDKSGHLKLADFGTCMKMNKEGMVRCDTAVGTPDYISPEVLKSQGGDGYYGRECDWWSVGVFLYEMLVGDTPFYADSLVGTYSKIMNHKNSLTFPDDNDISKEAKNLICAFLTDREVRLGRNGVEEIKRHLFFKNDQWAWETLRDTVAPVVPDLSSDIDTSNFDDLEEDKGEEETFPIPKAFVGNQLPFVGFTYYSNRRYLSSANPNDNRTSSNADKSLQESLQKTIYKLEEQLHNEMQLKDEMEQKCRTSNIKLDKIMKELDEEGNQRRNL
T2 sequence (O75116 1-553): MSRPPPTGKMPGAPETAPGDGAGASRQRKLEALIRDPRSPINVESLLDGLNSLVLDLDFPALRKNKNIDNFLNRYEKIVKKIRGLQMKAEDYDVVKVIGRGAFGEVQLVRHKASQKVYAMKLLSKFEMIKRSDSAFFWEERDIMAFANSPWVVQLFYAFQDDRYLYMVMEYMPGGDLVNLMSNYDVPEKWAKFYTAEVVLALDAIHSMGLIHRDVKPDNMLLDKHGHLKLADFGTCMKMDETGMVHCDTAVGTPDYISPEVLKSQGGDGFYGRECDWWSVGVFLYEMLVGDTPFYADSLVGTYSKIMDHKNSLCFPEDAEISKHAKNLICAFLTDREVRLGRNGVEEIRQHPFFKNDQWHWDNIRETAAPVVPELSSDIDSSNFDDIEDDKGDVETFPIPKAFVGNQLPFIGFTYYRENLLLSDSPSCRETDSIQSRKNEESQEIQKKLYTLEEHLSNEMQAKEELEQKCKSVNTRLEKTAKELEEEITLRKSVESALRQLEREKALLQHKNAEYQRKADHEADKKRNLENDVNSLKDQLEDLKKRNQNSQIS
T4 sequence (P31749 104-480): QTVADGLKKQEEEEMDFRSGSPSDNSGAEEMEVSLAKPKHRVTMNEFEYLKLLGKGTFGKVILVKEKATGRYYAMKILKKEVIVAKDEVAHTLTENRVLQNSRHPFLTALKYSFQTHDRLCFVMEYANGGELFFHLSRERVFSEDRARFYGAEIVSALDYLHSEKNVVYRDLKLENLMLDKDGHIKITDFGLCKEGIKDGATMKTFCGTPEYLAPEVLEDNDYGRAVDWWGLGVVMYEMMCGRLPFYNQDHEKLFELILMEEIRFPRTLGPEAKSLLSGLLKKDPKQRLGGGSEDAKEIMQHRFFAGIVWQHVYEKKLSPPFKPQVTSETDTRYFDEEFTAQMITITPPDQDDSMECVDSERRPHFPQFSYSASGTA

Turning to `CCNc1cc(C#N)cc2c1CCN2S(=O)(=O)c1cccc2c(=O)[nH]cc(C)c12` [Example 43, 4-(ethylamino)-1-((4-methyl-1-oxo-1,2-dihydroisoquinolin-5-yl)sulfonyl)indoline-6-carbonitrile], the IC50 was 1000 to 10000 nM in assay [1]; 100 to 1000 nM in assay [2]; more than 10 µM in assay [3]; more than 10 µM in assay [4]; more than 10 µM in assay [5].
As for `N#Cc1ccc2c(c1)N(S(=O)(=O)c1cc(Cl)cc3c(=O)[nH]ccc13)CC2` [Example 20, 1-((7-Chloro-1-oxo-1,2-dihydroisoquinolin-5-yl)sulfonyl)indoline-6-carbonitrile], the IC50 was more than 10000 nM in assay [1]; more than 10000 nM in assay [2]; more than 10 µM in assay [3]; more than 10 µM in assay [4]; more than 10 µM in assay [5].
As to `N#Cc1cc(N)c2c(c1)N(S(=O)(=O)c1cccc3c(=O)[nH]cc(Cl)c13)CC2` [Example 36, 4-amino-1-((4-chloro-1-oxo-1,2-dihydroisoquinolin-5-yl)sulfonyl)indoline-6-carbonitrile], the IC50 in assay [1] was less than 100 nM; in assay [2], less than 100 nM; in assay [3], more than 10 µM; in assay [4], more than 10 µM; in assay [5], 1 to 10 µM.
For `CC1(C)CN(S(=O)(=O)c2cccc3c(=O)[nH]ccc23)c2ccccc21` [Example 12, 5-((3,3-Dimethylindolin-1-yl)sulfonyl)isoquinolin-1 (2H)-one], the IC50 in assay [1] was more than 10000 nM; in assay [2], more than 10000 nM; in assay [3], more than 10 µM; in assay [4], more than 10 µM; in assay [5], more than 10 µM.
With `Cc1c[nH]c(=O)c2cccc(S(=O)(=O)N3CCc4c(NCCN5C[C@H]6C[C@@H]5CO6)cc(C#N)cc43)c12` [Example 45], the IC50 in assay [1] is less than 100 nM; in assay [2] it was less than 100 nM; in assay [3], 0.1 to 1 µM; in assay [4], less than 0.1 µM; in assay [5], 1 to 10 µM.
Turning to `CC(C)c1cccc2c1CCN2S(=O)(=O)c1cccc2c(=O)[nH]ccc12` [Example 14, 5-((4-Isopropylindolin-1-yl)sulfonyl)isoquinolin-1 (2H)-one], the concentration for half-maximal inhibition (IC50) in assay [1] is more than 10000 nM; in assay [2] it was more than 10000 nM; in assay [3] it was more than 10 µM; in assay [4] it was more than 10 µM; in assay [5], more than 10 µM.
For the molecule `O=c1[nH]ccc2c(S(=O)(=O)N3CCc4cc(O)ccc43)cccc12` [Example 2, 5-((5-Hydroxyindolin-1-yl)sulfonyl)isoquinolin-1 (2H)-one], the IC50 in assay [1] was more than 10000 nM; in assay [2] it was more than 10000 nM; in assay [3] it was more than 10 µM; in assay [4] it was more than 10 µM; in assay [5] it was more than 10 µM.
Regarding `N#Cc1cc(C2CC2)c2c(c1)N(S(=O)(=O)c1cccc3c(=O)[nH]ccc13)CC2` [Example 17], the IC50 in assay [1] is 100 to 1000 nM; in assay [2], 100 to 1000 nM; in assay [3] it was more than 10 µM; in assay [4], more than 10 µM; in assay [5], more than 10 µM.
Consider `O=c1[nH]ncc2c(S(=O)(=O)N3CCc4ccc(Cl)cc43)cccc12` [Example 25, 5-((6-Chloroindolin-1-yl)sulfonyl)phthalazin-1 (2H)-one], for which the concentration for half-maximal inhibition (IC50) in assay [1] was 1000 to 10000 nM; in assay [2], 1000 to 10000 nM; in assay [3], more than 10 µM; in assay [4], more than 10 µM; in assay [5] it was more than 10 µM.
For `O=c1[nH]ccc2c(S(=O)(=O)N3CCc4c(C5CC5)cccc43)cccc12` [Example 9, 5-((4-Cyclopropylindolin-1-yl)sulfonyl)isoquinolin-1 (2H)-one], the IC50 in assay [1] is more than 10000 nM; in assay [2], more than 10000 nM; in assay [3] it was more than 10 µM; in assay [4], more than 10 µM; in assay [5] it was more than 10 µM.
As for `CC(=O)Nc1cc(C#N)cc2c1CCN2S(=O)(=O)c1cccc2c(=O)[nH]cc(C)c12` [Example 32, N-(6-cyano-1-((4-methyl-1-oxo-1,2-dihydroisoquinolin-5-yl)sulfonyl)indolin-4-yl)acetamide], the IC50 in assay [1] is less than 100 nM; in assay [2], less than 100 nM; in assay [3] it was more than 10 µM; in assay [4], more than 10 µM; in assay [5] it was 1 to 10 µM.
Turning to `CC(=O)Nc1cc(C#N)cc2c1CCN2S(=O)(=O)c1cccc2c(=O)[nH]cc(Cl)c12` [Example 35, N-(1-((4-chloro-1-oxo-1,2-dihydroisoquinolin-5-yl)sulfonyl)-6-cyanoindolin-4-yl)acetamide], the IC50 in assay [1] is less than 100 nM; in assay [2] it was less than 100 nM; in assay [3], more than 10 µM; in assay [4], more than 10 µM; in assay [5], 1 to 10 µM.
Turning to `O=c1[nH]ccc2c(S(=O)(=O)N3CCc4ccc(Cl)cc43)cc(Cl)cc12` [Example 19, 7-Chloro-5-((6-chloroindolin-1-yl)sulfonyl)isoquinolin-1 (2H)-one], the IC50 in assay [1] is more than 10000 nM; in assay [2] it was more than 10000 nM; in assay [3], more than 10 µM; in assay [4], more than 10 µM; in assay [5], more than 10 µM.
For `Cc1cnc(O)c2cccc(S(=O)(=O)N3CCc4ccc(Cl)cc43)c12` [Example 24, 5-((6-Chloroindolin-1-yl)sulfonyl)-4-methylisoquinolin-1-ol], the IC50 is 1000 to 10000 nM in assay [1]; 1000 to 10000 nM in assay [2]; more than 10 µM in assay [3]; more than 10 µM in assay [4]; more than 10 µM in assay [5].
Turning to `CN(C)c1cc(C#N)cc2c1CCN2S(=O)(=O)c1cccc2c(=O)[nH]cc(Cl)c12` [Example 37, 1-((4-chloro-1-oxo-1,2-dihydroisoquinolin-5-yl)sulfonyl)-4-(dimethylamino)indoline-6-carbonitrile], the IC50 in assay [1] is 100 to 1000 nM; in assay [2], 100 to 1000 nM; in assay [3], more than 10 µM; in assay [4], more than 10 µM; in assay [5] it was more than 10 µM.
